Experimental data reported in US10709687B2, “FLT3 receptor inhibitor at low dosage for the treatment of neuropathic pain” (INSTITUT NATIONAL DE LA SANTE ET DE LA RECHERCHE MEDICALE …, priority 2016, dated 2020).
Where two headings read alike, the source gives them in different places. One block for each molecule: values may come before it.

Legend:
[1] = cited from earlier work
[2] = tested on: nerve injury-induced mechanical pain hypersensitivity; assay: Spinal Nerve Ligation (SNL) model, paw pressure test; assay type: in vivo, rat; conditions: for maximal inhibition on the SNL model in rat (dose): Method 1, no experimental details given; for Human Equivalent Dose (HED) from SNL rat dose: allometric FDA factor for the rat 6.2, human body weight 60 kg
Protocol: Adult Sprague Dawley rats (300-340 gr) (Janvier LABS, Le Genest Saint-Isle, France) were used according to the guidelines of the International Association for the Study of Pain. Rats were housed in cages with a 12/12 hr light/dark cycle and fed food and water ad libitum. Behavioral responsiveness of the rats was tested following ten days of habituation to the testing environment and the observer. Left side L5 spinal nerve was injured as described by Kim and Chung (1992) Pain 50, 355-363. Anesthesia was induced and maintained with isoflurane. A midline incision was made at the L3-S2 level and the dorsal vertebral column from L4 to S2 was exposed. Part of the L6 transverse process was carefully removed with fine rongeurs. The L5 spinal nerve were isolated and tightly ligated distal to the DRG with a 4-0 silk suture. The wound was closed in two layers using absorbable sutures. A similar procedure was performed for the sham surgery, except that spinal nerve was not isolated and not ligated. After surgery, the posture of the sham-operated and SNL rats was closely monitored before they were used in different experiments.
Mechanical hyperalgesia was measured as the threshold to a noxious mechanical stimulus. Nociceptive thresholds (NT) were determined in handled rats by a modification of the Randall-Selitto method (Kayser et al., Brain Res 1990; 508:329-332). Briefly, a constantly increasing pressure is applied to the rat hind paw until vocalization occurs. A Basile analgesimeter (Apelex, Massy, France; stylus tip diameter, 1 mm) was used. A 600-g cut-off value was determined to prevent tissue damage.
It was administered by oral gavage at different doses in a volume of 1 ml/kg body weight in a solution of dimethylsulfoxide (DMSO) at 3%. Control animals received an equal volume of DMSO 3%.
The data are presented as means±SEM. One-way ANOVA was used to assess individual group comparisons. […] The Newman-Keuls test was used for multiple comparisons between groups.

[3] = tested on: human tumor cells expressing FLT3-ITD (MV4,11); conditions: mouse xenograft model; literature references in Table 1; cited from earlier work
[4] = Active (recommended or clinically efficacious) dose for treating cancer in patients; assay type: in vivo; conditions: converted for a human with a body weight of 60 kg; advanced or recurrent head and neck cancers
Description: Active doses for FLT3 receptor inhibitor, according to Method 1 as described above, are the recommended doses, as appearing in the drug label when the product is marketed. […] Such information may be found via various sources well known by the person skilled in the art, such as articles, FDA data publications, labeling of marketed products, Summary of Product Characteristics (SmPC) from the European Medicine Agency (EMA), clinical trial descriptions from the US National Institute of Health (available at www.clinicaltrials.gov) and information on the outer product packaging.

[5] = tested on: inflammatory pain (CFA-induced mechanical hypersensitivity); assay: Complete Freund's Adjuvant (CFA) inflammatory pain model, von Frey mechanical hypersensitivity; assay type: in vivo; conditions: CFA mice; sunitinib 5 or 20 mg/kg; measured 1 and 2 days after administration
Protocol: Adult mice (8-10 week-old) (Janvier LABS, Le Genest Saint-Isle, France) were used according to the guidelines of the International Association for the Study of Pain. Mice were housed in cages with a 12/12 hr light/dark cycle and fed food and water ad libitum. Behavioral responsiveness of the animals was tested following ten days of habituation to the testing environment and the observer. Before testing, mice were acclimatized for 60 min in the temperature and light-controlled testing room within a plastic cylinder or on wire mesh.
A 0.6 g-von Frey filament was used for measuring punctuate hindpaw mechanical hypersensitivity with the dynamic plantar aesthesiometer (Bioseb, France). Sharp withdrawal of the stimulated hindpaw was considered as a positive response. The procedure was applied 10 times and the percentage of positive responses was calculated. Basal positive responses were recorded twice during two, consecutive days.
Inflammatory pain was produced by local injection of Complete Freund's Adjuvant (CFA), which induces a prolonged swelling that becomes maximal at 24 hrs and persists for at least 7 days (Iadarola et al., Pain. 1988; 35:313-26). […] Mechanical hypersensitivity was measured 4 days later. […]

[6] = biological target: T1, FLT3 (Mus musculus, UniProt Q00342); assay: FL potentiation of capsaicin-induced [Ca2+]i response in DRG neurons primary culture; assay type: cell-based, mice; conditions: FL 0.56 nM, capsaicin 0.5 μM
T1 construct: Primary neuronal cultures were established from lumbar (L4 to L6) dorsal root ganglia (DRG) of adult mice; endogenous in cells; host or cells: primary DRG neurons from adult mice
T1 sequence (Q00342 28-1000): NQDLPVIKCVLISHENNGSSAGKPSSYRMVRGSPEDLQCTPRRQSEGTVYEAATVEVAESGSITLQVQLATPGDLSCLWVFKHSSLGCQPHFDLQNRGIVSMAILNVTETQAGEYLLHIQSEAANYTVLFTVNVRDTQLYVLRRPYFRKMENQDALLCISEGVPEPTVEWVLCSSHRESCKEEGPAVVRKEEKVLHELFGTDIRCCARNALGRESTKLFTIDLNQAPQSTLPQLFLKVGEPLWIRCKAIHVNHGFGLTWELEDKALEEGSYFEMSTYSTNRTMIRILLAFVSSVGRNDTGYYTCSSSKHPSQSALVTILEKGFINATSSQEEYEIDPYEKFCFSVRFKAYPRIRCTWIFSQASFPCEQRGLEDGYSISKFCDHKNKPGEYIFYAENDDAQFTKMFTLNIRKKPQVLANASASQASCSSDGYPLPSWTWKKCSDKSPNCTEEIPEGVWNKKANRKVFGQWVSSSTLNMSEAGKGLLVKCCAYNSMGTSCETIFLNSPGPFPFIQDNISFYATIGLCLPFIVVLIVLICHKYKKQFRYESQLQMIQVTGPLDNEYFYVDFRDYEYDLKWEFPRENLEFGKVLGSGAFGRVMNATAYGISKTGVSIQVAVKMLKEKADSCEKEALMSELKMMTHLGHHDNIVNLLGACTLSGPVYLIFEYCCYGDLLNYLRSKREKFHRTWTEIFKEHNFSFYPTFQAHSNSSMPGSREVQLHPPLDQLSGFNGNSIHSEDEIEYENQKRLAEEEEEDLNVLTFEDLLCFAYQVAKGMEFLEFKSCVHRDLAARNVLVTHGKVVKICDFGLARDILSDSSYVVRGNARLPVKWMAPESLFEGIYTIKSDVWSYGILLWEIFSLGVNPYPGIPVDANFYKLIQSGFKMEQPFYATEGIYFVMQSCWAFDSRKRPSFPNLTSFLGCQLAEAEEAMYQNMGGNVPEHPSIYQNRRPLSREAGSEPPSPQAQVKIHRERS
Protocol: Primary neuronal cultures were established from lumbar (L4 to L6) dorsal root ganglia (DRG) of adult mice as previously described (Boudes et al, J. Neurosci. 29, 46, 10060-10068). Ganglia were treated twice with collagenase A (1 mg/ml, Roche Diagnostic, France) for 45 minutes (37° C.) and then with trypsin-EDTA (0.25%, Sigma, St Quentin Fallavier, France) for 30 minutes. They were mechanically dissociated by passing 8 to 10 times through the tip of a fire-polished Pasteur pipette in neurobasal (Life Technologies, Cergy Pontoise, France) culture medium supplemented with 10% foetal bovine serum and DNase (50 U/ml, Sigma, St Quentin Fallavier, France). Isolated cells were collected by centrifugation and suspended in neurobasal culture medium supplemented with 2% B27 (Life Technologies), 2 mM glutamine, penicillin/streptomycin (20 U/ml, 0.2 mg/ml). […]
For intracellular Ca^2+ measurements, DRG neurons were used 18-30 h after plating as described previously. […] A Fura filter cube with 400 long pass dichroic and D510/40m emission band pass was used to collect fluorescence emissions separately for each wavelength. Images were acquired and analyzed with Metafluor software (Molecular Devices). Changes in intracellular calcium concentrations ([Ca^2+]i) were monitored as changes of the ratio of the fura-2-fluorescence intensity recorded at 340 nm and 380 nm excitation wavelengths (ΔF340/380). […]

[7] = tested on: human tumor cells expressing FLT3-ITD (MV4,11); assay: Tumor regression in mouse xenograft model sensitive to FLT3 inhibition; assay type: in vivo; conditions: allometric FDA factor for the mouse 12.3; 60 kg
Description: The dose of FLT3 receptor inhibitor that induces tumor regression in animal models can be measured by using a mouse xenograft model, which is sensitive to FLT3 inhibition. Such a model may consist in an athymic immuno-deficient mouse implanted with human tumor cells that express a mutated, spontaneously activated, form of FLT3. […] An example of tumor cells that express FLT3-ITD is the MV4,11 cell line (Lange et al., Blood, 1987, 70:192-199).

Molecule: COc1cc(Nc2ncc(F)c(Nc3ccc4c(n3)N(COP(=O)(O)O)C(=O)C(C)(C)O4)n2)cc(OC)c1OC [Fostamatinib]
- Active dose for treating cancer (by cancer type) ([1]; twice a day): 100-200 twice a day

Molecule: CCc1nc(C(N)=O)c(Nc2ccc(N3CCC(N4CCN(C)CC4)CC3)c(OC)c2)nc1NC1CCOCC1 [Gilteritinib]
- maximal inhibition on the SNL model in rat (dose) [2]: 2 mg/kg
- Human Equivalent Dose (HED) from SNL rat dose [2]: HED = 19.4 mg
- Human Equivalent Dose (HED) from SNL rat dose ([2]; listed as gilteritinib): 19.4 mg

Molecule: Nc1ncc(-c2cnn(CCO)c2)c2scc(-c3ccc(NC(=O)Nc4cccc(F)c4)cc3)c12 [Ilorasertib]
- minimum inhibiting dose inducing maximal tumor regression [3]: 20 mg/kg
- Active dose for treating cancer (by cancer type) ([1]; once weekly, acute myelogenous leukaemia, myelodysplastic syndrome or chronic myelomonocytic leukaemia): 540 mg once weekly

Molecule: CO[C@@H]1[C@H](N(C)C(=O)c2ccccc2)C[C@H]2O[C@]1(C)n1c3ccccc3c3c4c(c5c6ccccc6n2c5c31)C(=O)NC4 [Midostaurin]
- Human Equivalent Dose (HED) from SNL rat dose [2]: 39 mg
- Human Equivalent Dose (HED) from SNL rat dose ([2]; listed as Midostaurine): HED = 39 mg

Molecule: C1=C/COCc2cc(ccc2OCCN2CCCC2)Nc2nccc(n2)-c2cccc(c2)COC/1 [Pacritinib]
- Active dose for treating cancer (by cancer type) ([1]; once daily): 400
- Active dose for treating cancer (by cancer type) ([1]; twice daily): 200

Molecule: CC(C)(C)c1cc(NC(=O)Nc2ccc(-c3cn4c(n3)sc3cc(OCCN5CCOCC5)ccc34)cc2)no1 [Quizartinib]
- maximal inhibition on the SNL model in rat (dose) [2]: 0.77 mg/kg
- Human Equivalent Dose (HED) from SNL rat dose [2]: HED = 7.5 mg
- Human Equivalent Dose (HED) from SNL rat dose ([2]; listed as quizartinib): 7.5 mg

Molecule: Cc1cc(C)c(/C=C2\C(=O)Nc3ccccc32)[nH]1 [Semaxinib]
- Active dose for treating cancer (by cancer type) [4]: 235 mg
- Active dose for treating cancer (by cancer type) ([1]; advanced or recurrent head and neck cancers): 145 mg/m^2

Molecule: CNC(=O)c1cc(Oc2ccc(NC(=O)Nc3ccc(Cl)c(C(F)(F)F)c3)cc2)ccn1 [Sorafenib]
- minimum inhibiting dose inducing maximal tumor regression [3]: 10 mg/kg

Molecule: CCN(CC)CCNC(=O)c1c(C)[nH]c(/C=C2\C(=O)Nc3ccc(F)cc32)c1C [Sunitinib]
- mechanical hypersensitivity (percentage of withdrawal after mechanical stimulation) [5]: inactive
- IC50 ([6]; non-linear regression, read-out: IC50 for inhibition of FL potentiation of the [Ca2+]i peak response to capsaicin): 0.7 nM
- inhibiting dose giving 50% of inhibition (ID50) of SNL-induced mechanical hypersensitivity ([2]; SNL rats, oral): 0.015 mg/kg
- minimal dose for maximal inhibition of pain sensitivity ([2]; SNL rats, oral administration, paw pressure 24 hours after administration): 0.075 mg/kg
- Human Equivalent Dose (HED) from SNL rat dose [2]: HED = 0.73 mg
- Human Equivalent Dose (HED) from SNL rat dose ([2]; listed as sunitinib): 0.73 mg
- Human Equivalent Dose (HED) from mouse tumor regression dose [7]: 98 mg

- effect on [Ca2+]i peak response to capsaicin [6]: elicited a potentiation
B1: FL: cytokine which is a natural ligand of the FLT3 receptor; from ABCYS SA (protein, UniProt P49771 27-235, looked up)
Fms-related tyrosine kinase 3 …: TQDCSFQHSPISSDFAVKIRELSDYLLQDYPVTVASNLQDEELCGGLWRLVLAQRWMERLKTVAGSKMQGLLERVNTEIHFVTKCAFQPPPSCLRFVQTNISRLLQETSEQLVALKPWITRQNFSRCLELQCQPDSSTLPPPWSPRPLEATAPTAPQPPLLLLLLLPVGLLLLAAAWCLHWQRTRRRTPRPGEQVPPVPSPQDLLLVEH
